# Test results: the Kinase Knowledgebase extract (Sharma et al. 2016)
# Key:
# MAPK14 (human) [1] = biological target: MAPK14 (human) (UniProt Q16539); test: Inhibition of IL-1 Production in LPS-Stimulated PBMCs; conditions: pbmc
# MAPK14 (human) [2] = biological target: MAPK14 (human) (UniProt Q16539); test: Inhibition of MAPK14 Kinase Activity
# MAPK14 (human) [3] = biological target: MAPK14 (human) (UniProt Q16539); test: Inhibition of TNF-alpha Production in LPS-Stimulated PBMCs; conditions: pbmc
# MAPK14 (human) [4] = biological target: MAPK14 (human) (UniProt Q16539); test: Inhibition of IL-1 Production in Whole Blood
# MAPK14 (human) [5] = biological target: MAPK14 (human) (UniProt Q16539); test: Inhibition of IL-6 Production in Whole Blood
# MAPK14 (human) [6] = biological target: MAPK14 (human) (UniProt Q16539); test: Inhibition of TNF Production in Whole Blood
# Chain of MAPK14 (human) (Q16539 whole entry, looked up): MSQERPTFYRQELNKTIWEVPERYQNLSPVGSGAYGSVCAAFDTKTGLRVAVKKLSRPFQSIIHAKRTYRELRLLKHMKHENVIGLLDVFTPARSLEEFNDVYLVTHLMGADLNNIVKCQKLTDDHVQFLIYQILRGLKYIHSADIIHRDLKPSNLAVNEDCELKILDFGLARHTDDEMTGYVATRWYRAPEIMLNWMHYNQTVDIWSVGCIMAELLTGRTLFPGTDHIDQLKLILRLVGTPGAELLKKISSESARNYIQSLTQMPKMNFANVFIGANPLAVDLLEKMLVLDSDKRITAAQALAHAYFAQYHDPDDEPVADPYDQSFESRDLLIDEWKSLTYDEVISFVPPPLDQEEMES
IC50 (MAPK14 (human) [1]) [nM],IC50 (MAPK14 (human) [2]) [nM],IC50 (MAPK14 (human) [3]) [nM],IC50 (MAPK14 (human) [4]) [nM],IC50 (MAPK14 (human) [5]) [nM],IC50 (MAPK14 (human) [6]) [nM],SMILES
< 100,< 100,< 100,< 250,< 250,< 250,O=C1NCN2N=C(Sc3ccc(F)cc3F)C=CC2=C1c1cc2c(cc1Cl)OCO2
> 500,> 1000,> 500,,,,O=C(O)c1cc(F)ccc1Sc1ccc2c(-c3c(Cl)cccc3Cl)c(=O)ncn2n1
100 to 500,100 to 1000,> 500,> 500,> 500,> 500,Nc1ccc(Cl)c(-c2c(=O)ncn3nc(Sc4ccc(F)cc4)ccc23)c1Cl
100 to 500,< 100,> 500,> 500,> 500,> 500,CCc1cc(Cl)c(C2=C3C=CC(Sc4ccc(F)cc4)=NN3CNC2=O)cc1O
